# Article PMC9764189 (The Journal of Biological Chemistry, 2022)
# Read-outs that look alike come from different tables or passages of the source.
# Assays:
# MR1 = MR1 (Homo sapiens, UniProt Q95460); test: biochemical; assay type: binding; conditions: for IC50: IC50, 10 nM JYM20, 100 nM MR1-empty, 25 °C, pH 7.5; for Binder category (ligand affinity for MR1): category by IC50
# MR1, sequence (Q95460 23-302 limits assumed): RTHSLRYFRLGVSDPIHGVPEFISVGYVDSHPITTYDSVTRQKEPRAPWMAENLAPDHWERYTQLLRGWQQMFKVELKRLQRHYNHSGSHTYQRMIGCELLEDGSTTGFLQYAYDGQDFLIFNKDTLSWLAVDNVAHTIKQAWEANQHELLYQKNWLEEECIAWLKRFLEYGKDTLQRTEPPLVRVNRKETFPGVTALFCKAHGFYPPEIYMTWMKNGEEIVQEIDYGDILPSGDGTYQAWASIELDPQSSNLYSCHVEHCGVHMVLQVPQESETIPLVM
# MR1, sequence (P61769 21-119 partner): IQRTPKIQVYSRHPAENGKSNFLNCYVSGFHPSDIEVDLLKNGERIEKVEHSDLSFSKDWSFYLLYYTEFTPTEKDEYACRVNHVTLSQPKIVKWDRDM
structure (smiles),measurement,setting,value
"O=Cc1cccc(C(=O)O)c1O [3-F-SA, 3-formylsalicylic acid]",IC50,MR1,0.563 µM
"O=C(O)CCNC(=O)c1cc(=O)[nH]c(=O)[nH]1 [DB28, 3-[(2,6-dioxo-1,2,3,6-tetrahydropyrimidin-4-yl)formamido]propanoic acid]",IC50,MR1,20 µM
"O=C(O)Cc1ccccc1Nc1c(Cl)cccc1Cl [DCF, diclofenac]",IC50,MR1,2600 µM
"CCOc1cc(C=O)ccc1O [Ethylvanillin, ethylvanillin]",Upregulation of surface MR1,C1R.MR1 cells; 3 h incubation,upregulated
same,Upregulation of surface MR1,C1R.MR1 cells; 16 h incubation,no noticeable upregulation
same,IC50,MR1,325 µM
"COc1ccc(O)c(C=O)c1 [HMB, 2-hydroxy-5-methoxybenzaldehyde]",IC50,MR1,775 µM
same,Binder category (ligand affinity for MR1),MR1,weak (weak (IC50 > 100 μM))
"COc1cc(C=O)ccc1O [Vanillin, vanillin]",Upregulation of surface MR1,C1R.MR1 cells; 3 h incubation,upregulated
same,Concentration at which MR1 was upregulated significantly,"C1R.MR1 cells; 3 h incubation, versus DMSO",10 µM
same,Upregulation of surface MR1,C1R.MR1 cells; 16 h incubation,modest increase
same,IC50,MR1,325 µM
same,Binder category (ligand affinity for MR1),MR1,weak (weak (IC50 > 100 μM))
